Experimental findings from patent US9328057B2, “Chiral arylketones in the treatment of neutrophil-dependent inflammatory diseases” (DOMPE' FARMACEUTICI S.P.A., priority 2002, dated 2016) are described below.

This experiment deals with chemiotaxis of human PMN leucocytes (PMNs) stimulated by interleukin 8. Put plainly: chemiotaxis of human PMNs stimulated by IL-8 (48-well microchamber). Conditions: Leucocyte, 10 min, IL-8 10 ng/mL, 10 minutes incubation at 37° C., read-out: IC50 (dose inhibiting 50% of the effect), chemiotaxis induced by IL-8 (converted). It is filed as cell-based. Here is the method:
For evaluation of the compounds of the invention, polymorphonucleated blood cells were used obtained from heparinized blood of healthy adult volunteers by means of sedimentation on dextran. The mononucleated cells were removed by means of Ficoll/Hypaque, whilst the red blood cells were eliminated by treatment with hypotonic solutions. The cell vitality of the polymorphonucleated leucocytes (PMNs) was calculated by means of exclusion with Turk and Trypan Blue whilst after staining with Diff Quinck the percentage of the PM-nucleates on the cytocentrifugate was estimated (for details of the experimental techniques used see W. J. Ming et al., J. Immunol., 138, 1469, 1987). In each of the in vitro experiments, time periods of 10 minutes were used for the incubation of the PMNs with the compounds of the invention, operating at a temperature of 37° C.
In the experiments of chemiotaxis and in those designed for measuring the cytosol levels of the Ca^2+ ion, human recombinant IL-8 (Pepro Tech.) was used as stimulant: the liophilized protein was dissolved in HBSS (Hank's balanced salts solution) at a concentration of 100 ng/mL and was used after dilution in HBSS down to concentrations of 10 ng/mL in the chemiotaxis experiments and at the concentration of 25-50 ng/mL in the evaluation of the modifications of [Ca^2+]. […]

Structures are written as SMILES.

The IC50 is the concentration that inhibits the measured activity by half.

Take `CC(=O)[C@H](C)c1ccc(CC(C)C)cc1` [R(−)-3-[(4′-isobutyl)phenyl]butan-2-one, (R)(−)-3-[(4′-isobutyl)phenyl]butan-2-one]: the IC50 is 0.5 nM.
